Measurements as given in ChEMBL document CHEMBL3217521, “Analogues of the HIV-Tat peptide containing N-modified arginines as potent inhibitors of protein arginine N-methyltransferases” (Medchemcomm, 2012).
Activity calls are given as the source filed them. The calls are words filed in the database; no cut-off is given here. Starred links: 1 amine or outer side, 2 acyl side, 3 side chain; linkers in the order of their positions; H or OH if unused. Non-standard residues stand in square brackets, D forms with d. Residues, ends and D or L forms follow the SMILES beside them. X2 = N/C(=N\CC(F)(F)F)NCCC[C@H](N[*:1])C(=O)[*:2]; X3 = N/C(=N\Cc1ccccc1)NCCC[C@H](N[*:1])C(=O)[*:2]; X4 = NC(NCCC[C@H](N[*:1])C(=O)[*:2])=[N+]1CCCC1; X5 = N/C(=N\C1CC1)NCCC[C@H](N[*:1])C(=O)[*:2]; X1 = N/C(=N\O)NCCC[C@H](N[*:1])C(=O)[*:2]

Legend:
[1] = biological target: T1, Protein arginine N-methyltransferase 1 (Homo sapiens, UniProt Q99873); experiment: Activity at PRMT1 (unknown origin) at 100 uM using => 5 uM of AdoMet
Target sequence in this assay (Q99873 whole entry, looked up): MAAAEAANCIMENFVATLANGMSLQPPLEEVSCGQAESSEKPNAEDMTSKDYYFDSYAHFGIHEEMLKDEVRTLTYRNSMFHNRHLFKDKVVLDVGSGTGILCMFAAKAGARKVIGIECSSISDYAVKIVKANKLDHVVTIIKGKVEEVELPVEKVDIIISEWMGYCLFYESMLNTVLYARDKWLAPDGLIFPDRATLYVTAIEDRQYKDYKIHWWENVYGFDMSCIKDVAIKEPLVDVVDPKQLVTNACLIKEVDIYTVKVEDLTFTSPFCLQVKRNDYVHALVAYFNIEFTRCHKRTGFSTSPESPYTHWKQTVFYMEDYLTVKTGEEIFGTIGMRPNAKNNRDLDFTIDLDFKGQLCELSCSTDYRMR

[2] = biological target: T2, Histone-arginine methyltransferase CARM1 (Homo sapiens) (UniProt Q86X55); experiment: Activity at PRMT4 (unknown origin) using AdoMet assessed as formation of MMA and aDMA at 0.25 to 200 uM after 60 to 120 mins by LC-MS/MS analysis
T2 sequence (whole entry): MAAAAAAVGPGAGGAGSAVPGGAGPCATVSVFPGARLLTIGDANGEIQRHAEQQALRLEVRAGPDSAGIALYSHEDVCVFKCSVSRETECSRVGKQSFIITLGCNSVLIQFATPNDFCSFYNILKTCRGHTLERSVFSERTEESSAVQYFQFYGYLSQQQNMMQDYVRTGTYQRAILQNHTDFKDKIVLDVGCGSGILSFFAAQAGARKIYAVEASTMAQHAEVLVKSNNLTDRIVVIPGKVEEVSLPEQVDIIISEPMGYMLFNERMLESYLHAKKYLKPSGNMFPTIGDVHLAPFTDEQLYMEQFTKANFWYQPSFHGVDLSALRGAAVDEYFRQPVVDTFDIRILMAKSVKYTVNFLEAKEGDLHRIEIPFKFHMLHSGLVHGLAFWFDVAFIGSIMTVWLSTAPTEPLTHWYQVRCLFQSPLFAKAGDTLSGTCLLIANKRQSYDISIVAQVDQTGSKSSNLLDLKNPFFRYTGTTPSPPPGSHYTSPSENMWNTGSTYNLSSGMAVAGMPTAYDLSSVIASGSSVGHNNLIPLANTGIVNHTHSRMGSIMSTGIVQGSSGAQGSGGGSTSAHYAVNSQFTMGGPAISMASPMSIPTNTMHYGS

[3] = biological target: T3, Protein arginine N-methyltransferase 6 (Homo sapiens, UniProt Q96LA8); experiment: Activity at PRMT6 (unknown origin) assessed as methylation of substituted arginines by LC-MS/MS analysis
Target sequence in this assay (Q96LA8 whole entry, looked up): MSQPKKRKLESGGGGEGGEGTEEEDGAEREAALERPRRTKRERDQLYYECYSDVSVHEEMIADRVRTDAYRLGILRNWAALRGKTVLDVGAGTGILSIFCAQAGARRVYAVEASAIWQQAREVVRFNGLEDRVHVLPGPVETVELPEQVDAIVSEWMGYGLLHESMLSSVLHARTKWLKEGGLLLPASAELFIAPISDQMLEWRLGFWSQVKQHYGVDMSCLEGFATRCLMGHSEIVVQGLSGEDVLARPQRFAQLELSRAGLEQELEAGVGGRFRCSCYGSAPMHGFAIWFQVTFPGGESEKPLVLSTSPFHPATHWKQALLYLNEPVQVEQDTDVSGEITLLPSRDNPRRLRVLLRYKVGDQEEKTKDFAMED

[4] = biological target: T3, Protein arginine N-methyltransferase 6; experiment: Inhibition of PRMT6 (unknown origin) using AdoMet by Michaelis-Menten equation analysis
Target sequence in this assay (Q96LA8 whole entry): as the sequence (Q96LA8 whole entry, looked up) above

[5] = biological target: T1, Protein arginine N-methyltransferase 1; experiment: Activity at PRMT1 (unknown origin) using [methyl-14C]AdoMet at 0.25 to 200 uM after 60 to 120 mins by tricine gel electrophoresis
Target sequence in this assay (Q99873 whole entry, looked up): as the sequence (Q99873 whole entry, looked up) above

[6] = biological target: T1, Protein arginine N-methyltransferase 1; experiment: Inhibition of PRMT1 (unknown origin) using AdoMet by Michaelis-Menten equation analysis
Target sequence in this assay (Q99873 whole entry): as the sequence (Q99873 whole entry, looked up) above

Homo sapiens [7] = organism: Homo sapiens; experiment: Ratio of PRMT4 (unknown origin) to PRMT1 (unknown origin)
[8] = biological target: T1, Protein arginine N-methyltransferase 1; experiment: Activity at PRMT1 (unknown origin) using AdoMet assessed as formation of MMA and aDMA at 0.25 to 200 uM after 60 to 120 mins by LC-MS/MS analysis
Target sequence in this assay (Q99873 whole entry, looked up): as above

[9] = biological target: T3, Protein arginine N-methyltransferase 6; experiment: Activity at PRMT6 (unknown origin) using AdoMet assessed as formation of MMA and aDMA at 0.25 to 200 uM after 60 to 120 mins by LC-MS/MS analysis
Target sequence in this assay (Q96LA8 whole entry, looked up): as the sequence (Q96LA8 whole entry, looked up) above

[10] = biological target: T3, Protein arginine N-methyltransferase 6; experiment: Activity at PRMT6 (unknown origin) using [methyl-14C]AdoMet at 0.25 to 200 uM after 60 to 120 mins by tricine gel electrophoresis
Target sequence in this assay (Q96LA8 whole entry, looked up): as above

[11] = biological target: T2, Histone-arginine methyltransferase CARM1 (Homo sapiens); experiment: Activity at PRMT4 (unknown origin) using [methyl-14C]AdoMet at 0.25 to 200 uM after 60 to 120 mins by tricine gel electrophoresis
[12] = biological target: T3, Protein arginine N-methyltransferase 6; experiment: Activity at PRMT6 (unknown origin) at 100 uM using => 5 uM of AdoMet
Target sequence in this assay (Q96LA8 whole entry, looked up): as above

[13] = biological target: T1, Protein arginine N-methyltransferase 1; experiment: Activity at PRMT1 (unknown origin) assessed as methylation of substituted arginines by LC-MS/MS analysis
Target sequence in this assay (Q99873 whole entry, looked up): as the sequence (Q99873 whole entry, looked up) above

Homo sapiens [14] = organism: Homo sapiens; experiment: Ratio of PRMT4 (unknown origin) to PRMT6 (unknown origin)
[15] = biological target: T3, Protein arginine N-methyltransferase 6; experiment: Activity at 50 to 100 nM of PRMT6 (unknown origin) up to 200 uM
Target sequence in this assay (Q96LA8 whole entry, looked up): as the sequence (Q96LA8 whole entry, looked up) above

[16] = biological target: T3, Protein arginine N-methyltransferase 6; experiment: Activity at 50 to 800 nM of PRMT6 (unknown origin) assessed as increase of Km up to 200 uM relative to control
Target sequence in this assay (Q96LA8 whole entry, looked up): as above

[17] = biological target: T3, Protein arginine N-methyltransferase 6; experiment: Inhibition of 50 to 100 nM of PRMT6 (unknown origin) up to 200 uM
[18] = biological target: T3, Protein arginine N-methyltransferase 6; experiment: Activity at 100 to 400 nM of PRMT6 (unknown origin) assessed as increase of Vmax up to 200 uM relative to control
[19] = biological target: T1, Protein arginine N-methyltransferase 1; experiment: Activity at 50 to 800 nM of PRMT1 (unknown origin) up to 200 uM
Target sequence in this assay (Q99873 whole entry, looked up): as the sequence (Q99873 whole entry, looked up) above

[20] = biological target: T1, Protein arginine N-methyltransferase 1; experiment: Activity at 800 nM of PRMT1 (unknown origin) at 100 to 200 uM
Target sequence in this assay (Q99873 whole entry, looked up): as above

[21] = biological target: T1, Protein arginine N-methyltransferase 1; experiment: Inhibition of 50 to 800 nM of PRMT1 (unknown origin) up to 200 uM
[22] = biological target: T1, Protein arginine N-methyltransferase 1; experiment: Activity at 50 to 100 nM of PRMT1 (unknown origin) up to 200 uM
[23] = biological target: T3, Protein arginine N-methyltransferase 6; experiment: Activity at 400 nM of PRMT6 (unknown origin) using histone H3 tail peptide
[24] = biological target: T1, Protein arginine N-methyltransferase 1; experiment: Inhibition of 50 nM of PRMT1 (unknown origin) up to 200 uM
[25] = biological target: T3, Protein arginine N-methyltransferase 6; experiment: Activity at 50 to 800 nM of PRMT6 (unknown origin) assessed as increase of Vmax up to 200 uM relative to control

Compound | Activity [2] | Activity [3] | Ki [4] | Activity [5] | Ki [6] | Selectivity ratio (Homo sapiens [7]) | Activity [8] | Activity [9] | Activity [10] | Activity [11] | Activity [13] | Selectivity ratio (Homo sapiens [14]) | also measured
H-GRKKARQRRRPPQ-OH | Active | inactive | 35.9 µM | Active | 7.6 µM | 10 | Active | Active | Active | Active | inactive | 10 | Activity [1]: Active; Activity [12]: Active
N=C(N)NCCC[C@H](NC(=O)CN)C(=O)N[C@@H](CCCCN)C(=O)N[C@@H](CCCCN)C(=O)N[C@@H](CCCNC(N)=[N+]1CCCC1)C(=O)N[C@@H](CCCNC(=N)N)C(=O)N[C@@H](CCC(N)=O)C(=O)N[C@@H](CCCNC(=N)N)C(=O)N[C@@H](CCCNC(=N)N)C(=O)N[C@@H](CCCNC(=N)N)C(=O)N1CCC[C@H]1C(=O)N1CCC[C@H]1C(=O)N[C@@H](CCC(N)=O)C(=O)O (H-GRKK[X4]RQRRRPPQ-OH) | – | inactive | 77.3 µM | Active | 7.62 µM | – | – | – | Active | Active | inactive | – | –
N=C(N)NCCC[C@H](NC(=O)CN)C(=O)N[C@@H](CCCCN)C(=O)N[C@@H](CCCCN)C(=O)N[C@@H](CCCN/C(N)=N/Cc1ccccc1)C(=O)N[C@@H](CCCNC(=N)N)C(=O)N[C@@H](CCC(N)=O)C(=O)N[C@@H](CCCNC(=N)N)C(=O)N[C@@H](CCCNC(=N)N)C(=O)N[C@@H](CCCNC(=N)N)C(=O)N1CCC[C@H]1C(=O)N1CCC[C@H]1C(=O)N[C@@H](CCC(N)=O)C(=O)O (H-GRKK[X3]RQRRRPPQ-OH) | – | inactive | 19.9 µM | Active | 2.68 µM | – | – | – | Active | Active | inactive | – | –
N=C(N)NCCC[C@H](NC(=O)CN)C(=O)N[C@@H](CCCCN)C(=O)N[C@@H](CCCCN)C(=O)N[C@@H](CCCN/C(N)=N/C1CC1)C(=O)N[C@@H](CCCNC(=N)N)C(=O)N[C@@H](CCC(N)=O)C(=O)N[C@@H](CCCNC(=N)N)C(=O)N[C@@H](CCCNC(=N)N)C(=O)N[C@@H](CCCNC(=N)N)C(=O)N1CCC[C@H]1C(=O)N1CCC[C@H]1C(=O)N[C@@H](CCC(N)=O)C(=O)O (H-GRKK[X5]RQRRRPPQ-OH) | – | – | > 100 µM | Active | 2.9 µM | – | – | – | Active | Active | – | – | –
CC/N=C(\N)NCCC[C@H](NC(=O)[C@H](CCCCN)NC(=O)[C@H](CCCCN)NC(=O)[C@H](CCCNC(=N)N)NC(=O)CN)C(=O)N[C@@H](CCCNC(=N)N)C(=O)N[C@@H](CCC(N)=O)C(=O)N[C@@H](CCCNC(=N)N)C(=O)N[C@@H](CCCNC(=N)N)C(=O)N[C@@H](CCCNC(=N)N)C(=O)N1CCC[C@H]1C(=O)N1CCC[C@H]1C(=O)N[C@@H](CCC(N)=O)C(=O)O | Active | inactive | 31.3 µM | Active | 4.29 µM | 10 | Active | Active | Active | Active | inactive | 10 | –
N=C(N)NCCC[C@H](NC(=O)CN)C(=O)N[C@@H](CCCCN)C(=O)N[C@@H](CCCCN)C(=O)N[C@@H](CCCN/C(N)=N/O)C(=O)N[C@@H](CCCNC(=N)N)C(=O)N[C@@H](CCC(N)=O)C(=O)N[C@@H](CCCNC(=N)N)C(=O)N[C@@H](CCCNC(=N)N)C(=O)N[C@@H](CCCNC(=N)N)C(=O)N1CCC[C@H]1C(=O)N1CCC[C@H]1C(=O)N[C@@H](CCC(N)=O)C(=O)O (H-GRKK[X1]RQRRRPPQ-OH) | Active | – | 63 µM | Active | 2.68 µM | 10 | Active | Active | Active | Active | – | 10 | –
N=C(N)NCCC[C@H](NC(=O)CN)C(=O)N[C@@H](CCCCN)C(=O)N[C@@H](CCCCN)C(=O)N[C@@H](CCCN/C(N)=N/CC(F)(F)F)C(=O)N[C@@H](CCCNC(=N)N)C(=O)N[C@@H](CCC(N)=O)C(=O)N[C@@H](CCCNC(=N)N)C(=O)N[C@@H](CCCNC(=N)N)C(=O)N[C@@H](CCCNC(=N)N)C(=O)N1CCC[C@H]1C(=O)N1CCC[C@H]1C(=O)N[C@@H](CCC(N)=O)C(=O)O (H-GRKK[X2]RQRRRPPQ-OH) | – | inactive | 43.3 µM | Active | 2.98 µM | – | – | – | Active | Active | inactive | – | –
N=C(N)NCCC[C@H](NC(=O)CN)C(=O)N[C@@H](CCCCN)C(=O)N[C@@H](CCCCN)C(=O)N[C@@H](CCCNC(=N)N)C(=O)N[C@@H](CCCNC(=N)N)C(=O)N[C@@H](CCC(N)=O)C(=O)N[C@@H](CCCNC(=N)N)C(=O)N[C@@H](CCCNC(=N)N)C(=O)N[C@@H](CCCNC(=N)N)C(=O)N1CCC[C@H]1C(=O)N1CCC[C@H]1C(=O)N[C@@H](CCC(N)=O)C(=O)O | Active | – | 35.1 µM | Active | 4.79 µM | 10 | Active | Active | Active | Active | – | 10 | Activity [15]: Active; fold change (FC) [16]: 87; inhibition [17]: inactive; Activity [18]: Active; Activity [19]: Active; Activity [20]: Active; inhibition [21]: inactive; Activity [22]: Active; Activity [23]: Active; inhibition [24]: inactive; fold change (FC) [25]: 9
